# From paper PMC7827217, “Probing the Binding Requirements of Modified Nucleosides with the DNA Nuclease SNM1A” (Molecules, 2021)
# What was measured:
# [1] = target: T1, recombinant SNM1A (698-1040) (Homo sapiens, UniProt Q6PJP8); experiment: Gel-based SNM1A inhibition assay (digestion of fluorescent 21-mer oligonucleotide substrate, denaturing PAGE); type: biochemical; conditions: for Lowest Inhibitory Concentration: concentration gradient 1 mM to 1 µM, approximately 3-fold dilutions, 60 min at 37 °C; for Lowest Inhibitory Concentration / Inhibition of SNM1A (extent of digestion of substrate): SNM1A 2.5 nM, substrate 80 nM, 5 min preincubation; for Inhibition of SNM1A (extent of digestion of substrate): 1 mM compound, 60 min incubation (Figure 2c)
# T1 construct: SNM1A (698-1040) was expressed and purified as described by Allerston et al; made in house
# T1 sequence (Q6PJP8 698-1040): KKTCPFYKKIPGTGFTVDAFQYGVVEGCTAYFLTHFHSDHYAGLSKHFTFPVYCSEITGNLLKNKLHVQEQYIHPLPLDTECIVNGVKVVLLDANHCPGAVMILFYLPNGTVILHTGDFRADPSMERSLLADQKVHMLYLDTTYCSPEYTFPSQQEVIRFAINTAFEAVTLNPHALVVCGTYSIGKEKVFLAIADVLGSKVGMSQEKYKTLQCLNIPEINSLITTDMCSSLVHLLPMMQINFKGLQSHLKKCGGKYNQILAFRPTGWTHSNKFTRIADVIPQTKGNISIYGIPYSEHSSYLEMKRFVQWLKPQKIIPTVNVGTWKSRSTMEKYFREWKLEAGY
# Protocol: The twelve modified nucleosides (Figure 2a) were evaluated as inhibitors of recombinant SNM1A to evaluate binding to the active site, using a previously reported gel-based assay with the same 21-mer oligonucleotide substrate. The nucleosides were incubated with SNM1A for 5 min prior to the addition of the fluorescently tagged 21-mer oligonucleotide substrate and further incubation for 1 h. In the event of the nucleoside binding to the active site, digestion of the substrate proceeds less efficiently (Figure 2b). SNM1A removes nucleotide monomers from the 5′-end, generating a shorter oligonucleotide that in turn is a substrate for SNM1A and can be digested further. The size of the oligonucleotide products, analysed by gel electrophoresis, therefore indicates how strongly a compound binds to the nuclease.
# SNM1A (698-1040) was expressed and purified as described by Allerston et al..
# SNM1A (698-1040) was stored as a 1.0 µM solution in reaction buffer (20 mM HEPES-KOH, pH 7.5, 50 mM KCl, 10 mM MgCl2, 0.05% Triton-X, 0.1 mg/mL BSA, 5% glycerol, 0.5 mM DTT). An oligonucleotide of the sequence 5′-TTAGCAGTCAGTCAGTCATCG-Cy3-3′ was phosphorylated using T4 PNK (New England Biolabs) and used as the substrate. Modified nucleosides were added to the assay in 40% DMSO solution (10 mM or as specified). Fluorescent oligonucleotides were protected from light during incubations and gel electrophoresis.
# Modified nucleosides (10 nmol or as specified) were mixed with SNM1A (698–1040) (25 fmol) in reaction buffer containing 4% DMSO (10 µL) on ice and incubated at 37 °C for 5 min. Phosphorylated oligonucleotide (0.8 pmol) was added and the reaction was incubated at 37 °C for 60 min. The reaction was stopped by the addition of stop solution (2 µL, 95% formamide, 10 mM EDTA) followed by heating to 95 °C for 3 min. The products of the reaction were analysed using gel electrophoresis; 3 µL of each reaction was used.
# Oligonucleotides were separated on a 15% acrylamide 6.5 M urea gel (2.9 g urea, 2.7 mL 40% acrylamide-bisacrylamide 25:1, 1.4 mL 5× TBE (0.45 M Tris, 0.45 M boric acid, 0.01 M EDTA pH 8.0), 0.6 mL H2O) in 1X TBE at 150 V for 90 min alongside bromophenol blue and xylene cyanol as markers for 8 and 28 nt, respectively, and imaged using Typhoon FLA 9500.
# Figure 2 Evaluation of modified (di)nucleosides as inhibitors of SNM1A. (a) Structures of the twelve (di)nucleosides that were evaluated as inhibitors of SNM1A; (b) schematic representation of assay; (c) gel electrophoresis showing the extent of digestion of fluorescent 21-mer oligonucleotide substrate. SNM1A (2.5 nM) was pre-incubated with the modified (di)nucleosides (1 mM) for 5 min before the oligonucleotide substrate (80 nM) was added and a further 60 min incubation. nt = nucleotides.
# Figure 3 Concentration dependence of 5′-C-linked malonate nucleoside 11. Digestion of the phosphorylated oligonucleotide (80 nM) after incubation with SNM1A (2.5 nM) and nucleoside 11 (1000–1 µM) or thymidine (T) (1 mM) for 60 min at 37 °C, analysed by denaturing PAGE. SNM1A was preincubated with the modified nucleoside for 5 min at 37 °C prior to the addition of the substrate. nt = nucleotides.
# SNM1A = test system: SNM1A; parameters: method as in PMID 31380542; conditions: previous work; cited from earlier work
Structure (SMILES),Lowest Inhibitory Concentration [1] [µM],Inhibition of SNM1A (SNM1A),Inhibition of SNM1A (extent of digestion of substrate) [1],"Potency compared with previously reported compounds ([1]; various concentrations, Figure 5b)"
"Cc1cn([C@H]2C[C@H](O)[C@@H](CC(C(=O)O)C(=O)O)O2)c(=O)[nH]c1=O [Compound 10, C-(5′-Deoxythymidin-5′-yl) disodium malonate]",333,–,–,–
Cc1cn([C@H]2C[C@H](O)[C@@H](C(=O)NO)O2)c(=O)[nH]c1=O [Compound 1],–,inhibit SNM1A to varying degrees,–,–
Cc1cn([C@H]2C[C@H](O)[C@@H](CCC(=O)NO)O2)c(=O)[nH]c1=O [Compound 2],–,inhibit SNM1A to varying degrees,–,–
"Cc1cn([C@H]2C[C@H](O)[C@@H](CO)O2)c(=O)[nH]c1=O [Thymidine, reference compound]",–,–,no effect on the hydrolysis of the substrate,–
"Cc1cn([C@H]2C[C@H](NC(=O)CC(=O)O)[C@@H](CO)O2)c(=O)[nH]c1=O [Compound 27, N-(3′-Deoxythymidin-3′-yl) amido sodium malonamide]",333,–,–,–
"Cc1cn(C2CC(O)C(CC(C(=O)NO)C(=O)NC3CC(n4cc(C)c(=O)[nH]c4=O)OC3CO)O2)c(=O)[nH]c1=O (stereo not shown) [Compound 36, N-(3′-Deoxythymidin-3′-yl)-C-(5′-deoxythymidin-5′-yl) amido N-hydroxy malonamide]",333,–,approximately equal potency,–
"Cc1cn(C2CC(O)C(CC(C(=O)O)C(=O)NC3CC(n4cc(C)c(=O)[nH]c4=O)OC3CO)O2)c(=O)[nH]c1=O (stereo not shown) [Compound 35, N-(3′-Deoxythymidin-3′-yl)-C-(5′-deoxythymidin-5′-yl) amido sodium malonate]",333,–,approximately equal potency,–
"Cc1cn([C@H]2C[C@H](O)[C@@H](CC(C(=O)O)C(=O)NO)O2)c(=O)[nH]c1=O (stereo partly shown) [Compound 11, C-(5′-deoxythymidin-5′-yl) sodium N-hydroxymalonamide]",33,–,most potent overall,slightly lower potency than compound 1
"COC(=O)CC(=O)NC1CC(n2cc(C)c(=O)[nH]c2=O)OC1CO (stereo not shown) [Compound 26, N-(3′-Deoxythymidin-3′-yl) amido methyl malonamide]",–,–,inactive,–
"COC(=O)C(CC1OC(n2cc(C)c(=O)[nH]c2=O)CC1O)C(=O)NC1CC(n2cc(C)c(=O)[nH]c2=O)OC1CO (stereo not shown) [Compound 34, N-(3′-Deoxythymidin-3′-yl)-C-(5′-deoxythymidin-5′-yl) amido methyl malonate]",1000,–,some inhibition,–
"COC(=O)C(C[C@H]1O[C@@H](n2cc(C)c(=O)[nH]c2=O)C[C@@H]1O)C(=O)O (stereo partly shown) [Compound 9, C-(5′-Deoxythymidin-5′-yl) monomethyl sodium malonate]",333,–,–,–
"Cc1cn([C@H]2C[C@H](NC(=O)CC(=O)NO)[C@@H](CO)O2)c(=O)[nH]c1=O [Compound 28, N-(3′-Deoxythymidin-3′-yl) amido N-hydroxymalonamide]",333,–,–,–
"Cc1cn([C@H]2C[C@H](O)[C@@H](CNC(=O)CC(=O)NO)O2)c(=O)[nH]c1=O [Compound 15, N-(5′-Deoxythymidin-5′-yl) amido N-hydroxymalonamide]",333,–,binds SNM1A,–
